Assay results published in ChEMBL document CHEMBL1149580, “Caco-2 cell permeability and stability of two d-glucopyranuronamide conjugates of thyrotropin-releasing hormone” (Bioorg Med Chem, 2007).
Non-standard residues stand in square brackets, D forms with d. Residues, ends and D or L forms follow the SMILES beside them. ξ: configuration not given here. *: point of attachment. X1 = NC(=O)[C@H]1OC(N*)[C@H](O)[C@@H](O)[C@@H]1O; ξAoc(2) = CCCCCCC(N)C(=O)O

What was measured:
[1] = Apparent permeability across human Caco-2 cells; type: ADME, cell-based
[2] = Stability in Caco-2 cells after 20 mins; type: ADME, cell-based; conditions: human, read-out: Stability
[3] = Stability in Caco-2 cells assessed as half life; type: ADME, cell-based, Colon; conditions: human
[4] = Stability in Caco-2 cells after 2 hrs; type: ADME, cell-based; conditions: human, read-out: Stability

| Papp [1] | remaining at 20 min [2] | half-life [3] | remaining at 2 h [4] | SMILES |
| --- | --- | --- | --- | --- |
| 0.147 ×10⁻⁶ cm/s | < 5% | 3 min | – | NC(=O)[C@@H]1CCCN1C(=O)[C@H](Cc1cnc[nH]1)NC(=O)[C@@H]1CCC(=O)N1 [PROTIRELIN] |
| 5.1 ×10⁻⁶ cm/s | – | 20 min | 20% | NC(=O)[C@H]1OC(NC(=O)[C@@H]2CCCN2C(=O)[C@H](Cc2cnc[nH]2)NC(=O)[C@@H]2CCC(=O)N2)[C@H](O)[C@@H](O)[C@@H]1O (stereo not given in full) |
| 0.0825 ×10⁻⁶ cm/s | – | – | – | OC[C@@H](O)[C@@H](O)[C@H](O)[C@H](O)CO [MANNITOL] |
| 16.3 ×10⁻⁶ cm/s | – | 20 min | 20% | CCCCCCC(N)C(=O)N[C@@H](CCC(N)=O)C(=O)N[C@@H](Cc1cnc[nH]1)C(=O)N1CCC[C@H]1C(=O)NC1O[C@H](C(N)=O)[C@@H](O)[C@H](O)[C@H]1O (stereo not given in full) (H-[ξAoc(2)]QHP-X1) |
